Laboratory results published in patent publication US20070010548A1, “Compounds having inhibitive activity of phosphatidylinositol 3-kinase and methods of use thereof” (ZENTARIS GmbH, priority 2003, published 2007).
Where two headings read alike, the source gives them in different places.

Columns and labels:
[1] = test system: tumor cells altered in PI 3-K/PTEN; assay: Cellular growth inhibition assays on tumor cells altered in PI 3-K/PTEN; type: cell-based; conditions: for IC50: approximate, read-out: Approx. mIC50 in cellular assays
Protocol: (§1) The ovarian cancer cell line SKOV3 is not altered in PI 3-K signaling and should be less sensitive to the anti-proliferative effects produced by treatment with PI 3-K inhibitors, while the OVCAR3 cell line, which is altered in PI 3-K signaling, via amplification of PI 3-K activity, should be sensitive. SKOV3 cells were seeded in 96-well cell culture plates (Greiner) at a density of 20,000 cells per well in McCoys 5A media (GibcoBRL) with 10% fetal calf serum and 20 mM L-glutamine. OVCAR3 cells were seeded at a density of 15,000 cells per well in RPMI 1640 media (GibcoBRL) containing 20 mM 1-glutamine, 0.01 ng/ml bovine insulin, 10 mM Hepes pH 7.4, 1 mM sodium pyruvate, 2.5 g/L glucose, and 20% fetal calf serum. After 24 hours, compounds were added to cell media to a final concentration of 1 μM, and the cells were grown in the presence of the compounds for 48 hours, in media containing 0.5% fetal calf serum. Viability was determined using a MTT cell proliferation assay (R and D Systems) and comparison to DMSO alone controls (100% viability). Compounds which result in reduced viability may act either by inhibiting cell proliferation or by inducing apoptosis (programmed cell death).
Selected compounds were evaluated against paired ovarian cancer cell lines at a range of concentrations to determine effective concentrations for growth inhibition.
MDA-MB-468 and MDA-MB-231 cells were seeded in 96-well cell culture plates (Greiner) at a density of 20,000 cells per well in RMPI media (GibcoBRL) with 10% fetal calf serum and 20 mM L-glutamine. After 24 hours, compounds were added to cell media to a final concentrations ranging from 10 nM to 100 μM, and the cells were grown in the presence of the compounds for 48 hours in RMPI media containing 0.5% fetal calf serum and 20 mM L-glutamine. Viability was determined using a MTT cell proliferation assay (R and D Systems) and comparison to DMSO alone controls (100% viability). Compounds which result in reduced viability may act either by inhibiting cell proliferation or by inducing apoptosis (programmed cell death). […] Selected compounds were evaluated against the paired breast cancer cell lines at a range of concentrations to determine effective concentrations for growth inhibition.
Table 3 summarizes the data for several compounds of this structural group, including the IC50 for inhibition of enzyme activity in vitro, cellular mIC50 and anti-proliferative activity against tumor cells altered in PI 3-K mediated signaling, and effects on cellular levels of phospho-Akt.

[2] = test system: phospho-Akt in MDA-MB-468 cells; assay: Phospho-Akt levels in MDA-MB-468 cells (PathScan phospho-Akt ELISA / immunoblotting); type: cell-based, human; conditions: 50 μM, 4 hours, serum-starved MDA-MB-468 cells; DMSO alone = 100%
Protocol: Because phosphorylation and activation of PKB/Akt is dependent on PI 3-K activity, PI 3-K inhibitors decrease the cellular levels of phospho-Akt. MDA-MB-468 cells show constitutively high levels of phospho-Akt as a result of abnormal activation of PI 3-K signaling.
The effect of treatment with PI 3-K inhibitors on phospho-Akt levels in these cells was determined as follows. Cells were plated into 6-well cell culture dishes at a density of 5×10^5 cells per well in RMPI media containing 10% fetal calf serum and 2 mM L-glutamine. Twenty-four hours later, media was removed and replaced with serum-free RMPI containing 2 mM L-glutamine. The cells were serum-starved overnight.
Compounds were diluted into serum-free media to a final concentration of 50 μM and added to the cells. The cells were incubated in the presence of PI 3-K inhibitors for 4 hours. Phospho-Akt levels were determined using one of the following methods.
To determine phospho-Akt levels using immunoblotting, cells were washed twice with PBS and lysed in ice-cold lysis buffer (1% Triton X-100, 50 mM Hepes pH 7.4, 150 mM NaCl, 1.5mM MgCl2, 1 mM EGTA, 100 mM NaF, 10 mM Sodium Pyrophosphate, 1 mM Na(subscript: 3)VO(subscript: 4), 10% glycerol, InmM phenylmethylsulfonyl fluoride, and 10 ug/ml aprotifin). Total protein concentration was determined using a BCA assay. 30ug of total cell lysate protein was diluted into Laemmli sample buffer and loaded onto a 10% acrylamide gel, subjected to SDS-PAGE, and transferred to a PVDF membrane. The membrane was blocked with 5% bovine serum albumin and then incubated at 4° C. overnight with antibody. The membrane was washed in TBS-T (10 mM Tris-HCl pH 7.4, 150 mM NaCl, and 0.1% Tween-20) and incubated with HRP-conjugated antibody (diluted in 5% milk in TBS-T) at room temperature for 1 h. The membrane was washed extensively and the proteins were visualized by chemiluminscent detection. The compounds effects on phospho-Akt levels were observed as relative differences in the amount of phospho-Akt detected by immunoblotting.
Effects on cellular levels of phospho-Akt following treatment with PI 3-K inhibitors were quantified using the PathScan phospho-Akt ELISA (Cell Signaling Technologies)., a sandwich ELISA for detection of phospho-Akt. The kit was used according to the manufacturer protocol. Absorbance at 450 nm was determined for each sample and used directly as equivalent of phospho-Akt levels.
Percent decreases in phospho-Akt levels were determined by normalizing relative to blank samples (0%/O) and control samples treated with DMSO alone (1 00%).

SKOV3 cells = assay: MTT cell proliferation/viability assay, SKOV3 ovarian cancer cells; type: cell-based; conditions: Homo sapiens
Protocol: as §1
(§2) Many of these also show similar selective effects on cell growth. Table 2 summarizes the results of two separate cell proliferation experiments for selected compounds of the present invention.

OVCAR3 cells = assay: MTT cell proliferation/viability assay, OVCAR3 ovarian cancer cells; type: cell-based; conditions: Homo sapiens
Protocol: as §1, §2

[3] = SK-OV-3, 48 hours, MTT, DMSO alone controls = 100% viability, Trial 1, read-out: Trial 1 SKOV-3 (viability)
[4] = SK-OV-3, 48 hours, MTT, DMSO alone controls = 100% viability, Trial 2, read-out: Trial 2 SKOV-3 (viability)
[5] = SK-OV-3, average of Trial 1 and Trial 2, 48 hours, read-out: Average SKOV3 (viability)
[6] = OVCAR-3, 48 hours, MTT, DMSO alone controls = 100% viability, Trial 1, read-out: Trial 1 OVCAR3 (viability)
[7] = OVCAR-3, 48 hours, MTT, DMSO alone controls = 100% viability, Trial 2, read-out: Trial 2 OVCAR3 (viability)
[8] = OVCAR-3, average of Trial 1 and Trial 2, 48 hours, read-out: average OVCAR-3 (viability)

SMILES	Anti-proliferative effects on tumor cells altered in PI 3-K/PTEN [1]	IC50 [1]	Approx. % decrease phospho-Akt relative to controls [2]	viability at 1 µM (SKOV3 cells; [3])	viability at 1 µM (SKOV3 cells; [4])	viability at 1 µM (SKOV3 cells; [5])	viability at 1 µM (OVCAR3 cells; [6])	viability at 1 µM (OVCAR3 cells; [7])	viability at 1 µM (OVCAR3 cells; [8])
CC1(C)CC(=O)C2=C(C1)Nc1c(c(C(C)(C)C)nn1C(C)(C)C)C2c1ccc(OCc2ccccc2)c(OCc2ccccc2)c1 (stereo not drawn) [Compound 963985]	Yes	1 µM	50%						
Cc1ccc(C2C3=C(CC(C)(C)CC3=O)Nc3c2c(C(C)(C)C)nn3-c2ccc(C)cc2)cc1 (stereo not drawn) [Compound 964028, 3-t-butyl-4-(4-methylphenyl)-7,7-dimethyl-1-(4-methylphenyl)-4,7,8,9-tetrahydro-1H-pyrazolo[3,4-b]quinolin-5(6H)-one]	Yes	10 µM	40%	100%	99.1%	99.5%	42%	45.4%	43.7%
COc1ccc(-n2nc(C(C)(C)C)c3c2NC2=C(C(=O)CC(C)(C)C2)C3c2ccccc2Cl)cc1 (stereo not drawn) [Compound 964076, 3-t-butyl-4-(2-chlorophenyl)-7,7-dimethyl-1-(4-methoxyphenyl)-4,7,8,9-tetrahydro-1H-pyrazolo[3,4-b]quinolin-5(6H)-one]	Yes	10 µM	60%	100%	92.9%	96.5%	41%	53.2%	47.1%
COc1ccc(OC)c(C2C3=C(CC(C)(C)CC3=O)Nc3c2c(C(C)(C)C)nn3-c2ccc(C)cc2C)c1 (stereo not drawn) [Compound 964232]	Yes	< 20 µM	50%	98%	100%	99%	45%	71%	58%
COc1ccccc1C1C2=C(CC(C)(C)CC2=O)Nc2c1c(C(C)(C)C)nn2-c1ccc(Cl)c(C)c1 (stereo not drawn) [Compound 964247]	Yes	< 20 µM	30%	100%	100%	100%	42%	43.7%	42.9%
CC1(C)CC(=O)C2=C(C1)Nc1c(c(C(C)(C)C)nn1-c1ccc(Cl)c(Cl)c1)C2c1cccc(OCc2ccccc2)c1 (stereo not drawn) [Compound 964260]	Yes	< 20 µM	40%	93%	85%	89%	41%	53%	47%
CC1(C)CC(=O)C2=C(C1)Nc1c(c(-c3ccccc3)nn1-c1cccc(F)c1)C2c1ccc(C(F)(F)F)cc1 (stereo not drawn) [Compound 964661]	Yes	< 20 µM	40%	99%	77.1%	88%	36%	58.9%	47.5%
